From ChEMBL document CHEMBL3885861, “Open TG-GATES”
“And” between values parts separate entries of the source, which are not always exact repeats. Identical values can stand only once.

Organism: Rattus norvegicus
Experiment: Open TG-GATES - Regimen: Single
Format: toxicity, organism-based, Sprague-Dawley
Set-up: regimen Single, gender Male, age 6 weeks
Settings: in vivo, po, route gavage; for LIVER: tissue Liver; for A/G / ALP / ALT / AST / BUN / CRE / Ca / Cl / GLC / IP / K / LDH / Na / PL / RALB / TBIL / TC / TG / TP / gamma-GTP / DBIL: tissue Plasma; for APTT / Bas / Eos / Fbg / Hb / Ht / Lym / MCH / MCHC / MCV / Mono / Neu / PT / Plat / RBC / Ret / WBC: tissue Blood; for KIDNEY_L / KIDNEY_R / KIDNEY_TOTAL: tissue Kidney
[1] = 0 mg/kg, 24 h, dose level Control

COc1ccc2c(c1)c(CC(=O)O)c(C)n2C(=O)c1ccc(Cl)cc1 [INDOMETHACIN]
LIVER [1]: 10.4 g and 11.1 g | A/G [1]: 2.1 and 1.6 | ALP [1]: 1109.6 IU/L and 886.6 IU/L | ALT [1]: 39.6 IU/L and 36.4 IU/L | AST [1]: 68 IU/L and 72.6 IU/L | BUN [1]: 18 mg/dL and 13.8 mg/dL | CRE [1]: 0.5 mg/dL and 0.4 mg/dL | Ca [1]: 10.5 mg/dL and 10.7 mg/dL | Cl [1]: 105 meq/L and 102.8 meq/L | GLC [1]: 185.4 mg/dL and 187.8 mg/dL | IP [1]: 8.8 mg/dL and 7.4 mg/dL | K [1]: 5.7 meq/L and 4.3 meq/L | LDH [1]: 106 IU/L and 240.2 IU/L | Na [1]: 138.8 meq/L and 140.6 meq/L | PL [1]: 153.2 mg/dL and 145.8 mg/dL | RALB [1]: 4 g/dL and 3.4 g/dL | TBIL [1]: 0.2 mg/dL and 0.1 mg/dL | TC [1]: 83.2 mg/dL and 72.2 mg/dL | TG [1]: 84 mg/dL and 116 mg/dL | TP [1]: 5.9 g/dL and 5.5 g/dL | gamma-GTP [1]: 1.2 IU/L and 1.4 IU/L | TERMINAL_BW (1 mg/kg, 3 h, dose level Low): 199.2 g | APTT (1 mg/kg, 3 h, dose level Low): 17.2 s | Bas (1 mg/kg, 3 h, dose level Low): 0% | Eos (1 mg/kg, 3 h, dose level Low): 0.6% | Fbg (1 mg/kg, 3 h, dose level Low): 222.4 mg/dL | Hb (1 mg/kg, 3 h, dose level Low): 13.3 g/dL | Ht (1 mg/kg, 3 h, dose level Low): 40% | Lym (1 mg/kg, 3 h, dose level Low): 81.2% | MCH (1 mg/kg, 3 h, dose level Low): 21.8 pg | MCHC (1 mg/kg, 3 h, dose level Low): 33.1% | MCV (1 mg/kg, 3 h, dose level Low): 65.7 fL | Mono (1 mg/kg, 3 h, dose level Low): 8.6% | Neu (1 mg/kg, 3 h, dose level Low): 9.8% | PT (1 mg/kg, 3 h, dose level Low): 12.4 s | Plat (1 mg/kg, 3 h, dose level Low): 99.5 x10_4/uL | RBC (1 mg/kg, 3 h, dose level Low): 610 x10_4/ul | Ret (1 mg/kg, 3 h, dose level Low): 9.6% | WBC (1 mg/kg, 3 h, dose level Low): 95.5 x10_2/uL | KIDNEY_L (1 mg/kg, 3 h, dose level Low): 0.9 g | KIDNEY_R (1 mg/kg, 3 h, dose level Low): 0.9 g | KIDNEY_TOTAL (1 mg/kg, 3 h, dose level Low): 1.8 g | LIVER (1 mg/kg, 3 h, dose level Low): 9.5 g | A/G (1 mg/kg, 3 h, dose level Low): 1.7 | ALP (1 mg/kg, 3 h, dose level Low): 1062.4 IU/L | ALT (1 mg/kg, 3 h, dose level Low): 37.4 IU/L | AST (1 mg/kg, 3 h, dose level Low): 68.6 IU/L | BUN (1 mg/kg, 3 h, dose level Low): 11.8 mg/dL | CRE (1 mg/kg, 3 h, dose level Low): 0.5 mg/dL | Ca (1 mg/kg, 3 h, dose level Low): 10.5 mg/dL | Cl (1 mg/kg, 3 h, dose level Low): 105.6 meq/L | DBIL (1 mg/kg, 3 h, dose level Low): 0.018 mg/dL | GLC (1 mg/kg, 3 h, dose level Low): 187.8 mg/dL | IP (1 mg/kg, 3 h, dose level Low): 9 mg/dL | K (1 mg/kg, 3 h, dose level Low): 4.8 meq/L | LDH (1 mg/kg, 3 h, dose level Low): 100 IU/L | Na (1 mg/kg, 3 h, dose level Low): 137.4 meq/L | PL (1 mg/kg, 3 h, dose level Low): 130.4 mg/dL | RALB (1 mg/kg, 3 h, dose level Low): 3.8 g/dL | TBIL (1 mg/kg, 3 h, dose level Low): 0.3 mg/dL | TC (1 mg/kg, 3 h, dose level Low): 75.6 mg/dL | TG (1 mg/kg, 3 h, dose level Low): 41.8 mg/dL | TP (1 mg/kg, 3 h, dose level Low): 6.1 g/dL | gamma-GTP (1 mg/kg, 3 h, dose level Low): 1.6 IU/L | TERMINAL_BW (1 mg/kg, 6 h, dose level Low): 195.5 g | APTT (1 mg/kg, 6 h, dose level Low): 16.7 s | Bas (1 mg/kg, 6 h, dose level Low): 0% | Eos (1 mg/kg, 6 h, dose level Low): 0.6% | Fbg (1 mg/kg, 6 h, dose level Low): 210.6 mg/dL | Hb (1 mg/kg, 6 h, dose level Low): 13.6 g/dL | Ht (1 mg/kg, 6 h, dose level Low): 41.1% | Lym (1 mg/kg, 6 h, dose level Low): 78.8% | MCH (1 mg/kg, 6 h, dose level Low): 21.8 pg | MCHC (1 mg/kg, 6 h, dose level Low): 33.1% | MCV (1 mg/kg, 6 h, dose level Low): 66 fL | Mono (1 mg/kg, 6 h, dose level Low): 9% | Neu (1 mg/kg, 6 h, dose level Low): 11.6% | PT (1 mg/kg, 6 h, dose level Low): 12.5 s | Plat (1 mg/kg, 6 h, dose level Low): 104.4 x10_4/uL | RBC (1 mg/kg, 6 h, dose level Low): 623.2 x10_4/ul | Ret (1 mg/kg, 6 h, dose level Low): 9.4% | WBC (1 mg/kg, 6 h, dose level Low): 102.9 x10_2/uL | KIDNEY_L (1 mg/kg, 6 h, dose level Low): 1 g | KIDNEY_R (1 mg/kg, 6 h, dose level Low): 0.9 g | KIDNEY_TOTAL (1 mg/kg, 6 h, dose level Low): 1.9 g | LIVER (1 mg/kg, 6 h, dose level Low): 8.8 g | A/G (1 mg/kg, 6 h, dose level Low): 1.7 | ALP (1 mg/kg, 6 h, dose level Low): 1218.4 IU/L | ALT (1 mg/kg, 6 h, dose level Low): 35.8 IU/L | AST (1 mg/kg, 6 h, dose level Low): 70.6 IU/L | BUN (1 mg/kg, 6 h, dose level Low): 11 mg/dL | CRE (1 mg/kg, 6 h, dose level Low): 0.5 mg/dL | Ca (1 mg/kg, 6 h, dose level Low): 10.2 mg/dL | Cl (1 mg/kg, 6 h, dose level Low): 105.6 meq/L | DBIL (1 mg/kg, 6 h, dose level Low): 0.02 mg/dL | GLC (1 mg/kg, 6 h, dose level Low): 191.4 mg/dL | IP (1 mg/kg, 6 h, dose level Low): 9.4 mg/dL | K (1 mg/kg, 6 h, dose level Low): 5.1 meq/L | LDH (1 mg/kg, 6 h, dose level Low): 83.6 IU/L | Na (1 mg/kg, 6 h, dose level Low): 136.8 meq/L | PL (1 mg/kg, 6 h, dose level Low): 126.4 mg/dL | RALB (1 mg/kg, 6 h, dose level Low): 3.8 g/dL | TBIL (1 mg/kg, 6 h, dose level Low): 0.3 mg/dL | TC (1 mg/kg, 6 h, dose level Low): 75.8 mg/dL | TG (1 mg/kg, 6 h, dose level Low): 53.2 mg/dL | TP (1 mg/kg, 6 h, dose level Low): 6 g/dL | gamma-GTP (1 mg/kg, 6 h, dose level Low): 1.4 IU/L | TERMINAL_BW (1 mg/kg, 9 h, dose level Low): 198.6 g | APTT (1 mg/kg, 9 h, dose level Low): 16.5 s | Bas (1 mg/kg, 9 h, dose level Low): 0% | Eos (1 mg/kg, 9 h, dose level Low): 0.8% | Fbg (1 mg/kg, 9 h, dose level Low): 213 mg/dL | Hb (1 mg/kg, 9 h, dose level Low): 13.1 g/dL | Ht (1 mg/kg, 9 h, dose level Low): 39.4% | Lym (1 mg/kg, 9 h, dose level Low): 83.6% | MCH (1 mg/kg, 9 h, dose level Low): 21.8 pg | MCHC (1 mg/kg, 9 h, dose level Low): 33.3% | MCV (1 mg/kg, 9 h, dose level Low): 65.5 fL | Mono (1 mg/kg, 9 h, dose level Low): 6.6% | Neu (1 mg/kg, 9 h, dose level Low): 9.2% | PT (1 mg/kg, 9 h, dose level Low): 12.6 s | Plat (1 mg/kg, 9 h, dose level Low): 102.1 x10_4/uL | RBC (1 mg/kg, 9 h, dose level Low): 602 x10_4/ul | Ret (1 mg/kg, 9 h, dose level Low): 10.2% | WBC (1 mg/kg, 9 h, dose level Low): 141 x10_2/uL | KIDNEY_L (1 mg/kg, 9 h, dose level Low): 0.9 g | KIDNEY_R (1 mg/kg, 9 h, dose level Low): 1 g | KIDNEY_TOTAL (1 mg/kg, 9 h, dose level Low): 1.9 g | LIVER (1 mg/kg, 9 h, dose level Low): 8 g | A/G (1 mg/kg, 9 h, dose level Low): 2.6 | ALP (1 mg/kg, 9 h, dose level Low): 915 IU/L | ALT (1 mg/kg, 9 h, dose level Low): 35.6 IU/L | AST (1 mg/kg, 9 h, dose level Low): 68.2 IU/L | BUN (1 mg/kg, 9 h, dose level Low): 10.6 mg/dL | CRE (1 mg/kg, 9 h, dose level Low): 0.5 mg/dL | Ca (1 mg/kg, 9 h, dose level Low): 10 mg/dL | Cl (1 mg/kg, 9 h, dose level Low): 106.8 meq/L | DBIL (1 mg/kg, 9 h, dose level Low): 0.072 mg/dL | GLC (1 mg/kg, 9 h, dose level Low): 187.4 mg/dL | IP (1 mg/kg, 9 h, dose level Low): 10 mg/dL | K (1 mg/kg, 9 h, dose level Low): 5.1 meq/L | LDH (1 mg/kg, 9 h, dose level Low): 92.8 IU/L | Na (1 mg/kg, 9 h, dose level Low): 137.4 meq/L | PL (1 mg/kg, 9 h, dose level Low): 141.6 mg/dL | RALB (1 mg/kg, 9 h, dose level Low): 3.8 g/dL | TBIL (1 mg/kg, 9 h, dose level Low): 0.5 mg/dL | TC (1 mg/kg, 9 h, dose level Low): 85.8 mg/dL | TG (1 mg/kg, 9 h, dose level Low): 45.2 mg/dL
